In ChEMBL document CHEMBL1135430, “Synthesis of 3,4-dihydro-2H-1,2,4-benzo-thiadiazine 1,1-dioxide derivatives as potential allosteric modulators of AMPA/kainate receptors” (2002):

Species on record: Rattus norvegicus
Experiment: Variation of kainate-activated (KA) currents in primary cultures of cerebellar granule neurons at 1 mM using patch-clamp technique
Type: functional
Work on `CN(C)c1ccc(C2Nc3ccccc3S(=O)(=O)N2)cc1` (stereo unspecified) yielded a Variation of -1%.
Work on `O=S1(=O)NC(c2ccc(O)cc2)Nc2ccc(Cl)cc21` (stereo unspecified) yielded a Variation of -51%.
Work on `O=S1(=O)NC(CCl)Nc2ccccc21` (stereo unspecified) yielded a Variation of -22%.
With `O=S1(=O)NC(C(F)(F)F)Nc2ccccc21` (stereo unspecified) the Variation was 70%.
`O=S1(=O)NC(c2ccccc2)Nc2ccccc21` (stereo unspecified) gave a Variation of -34%.
Work on `O=S1(=O)NC(CCl)Nc2ccc(Cl)cc21` (stereo unspecified) yielded a Variation of -26%.
Compound `O=S1(=O)NC(c2ccc(O)cc2)Nc2ccccc21` (stereo unspecified) has a Variation of -60%.
`CC1Nc2ccc(Cl)cc2S(=O)(=O)N1` (stereo unspecified) showed a Variation of 115%.
`CN(C)c1ccc(C2Nc3ccc(Cl)cc3S(=O)(=O)N2)cc1` (stereo unspecified) gave a Variation of -1%.
For `O=S1(=O)NC(C(F)(F)F)Nc2ccc(Cl)cc21` (stereo unspecified), the Variation was 72%.
`NS(=O)(=O)c1cc2c(cc1Cl)NC(C1CC3C=CC1C3)NS2(=O)=O` (stereo unspecified) [CYCLOTHIAZIDE] was tested, and the Variation was 111%.
